Laboratory results: patent publication US11739089B2, “Acetamido-phenyltetrazole derivatives and methods of using the same” (Athenex, Inc., priority 2020, dated 2023)
Where two headings read alike, the source gives them in different places.

Experiments:
CYP3A4 = CYP3A4 (Homo sapiens (Human), UniProt P08684); assay: CYP3A4 inhibitory activity: Luciferin-IPA (P450-Glo) assay with human liver microsome
Description: Cytochrome P450 activity may be determined by a P450-Glo™ assay (Promega) with human liver microsomes wherein the compounds of the present disclosure are dosed at different concentrations in buffer and incubated. Dose-response curve and IC50 data may be obtained and fit to a nonlinear regression model using GraphPad Prism software (v6.0).
The standard final Compound concentrations were 37, 111, 333, 1000, and 3000 nM. 12.5 μL of the Compound dilutions were transferred to a white 96-well plate. 1450 μL (enough for a whole plate) of 4× assay buffer (400 mM potassium phosphate buffer (10 mL 1M potassium phosphate buffer: 8.02 mL 1M K2HPO4+1.98 mL 1M KH2PO4 (1.4 g K2HPO4+0.27 g KH2PO4 in 10 mL H2O), 32 μM Luciferin-IPA (Promega V9002)) 580 μl of 1 M K3PO4 buffer, 870 μL H2O, 14 μL of 3 mM Luciferin-IPA, and 18 μL of human liver microsome (Sigma M0317-1VL) was made. 12.5 μL of 4× assay buffer was added to each well. For the well of blank control, 12.5 μL of 4× assay buffer without liver microsome was added. The plate was incubated at room temperature for 15 minutes. 2.75 mL NADPH buffer was made as follows: 2.42 mL H2O, 275 μL solution A and 55 μL solution B (NADPH regeneration system, Promega V9510). 25 μL of the buffer was added to each well. The plates were incubated at 37° C. for 11 minutes. 50 μL of luciferin detection reagent (Promega V9002) was added and the plates were incubated at room temperature for 5 minutes. The plate was read with a luminometer.
The dose-response curve and IC50 were obtained by fitting data to nonlinear regression model using GraphPad Prism software (v6.0).

P-glycoprotein = P-glycoprotein (Homo sapiens (Human), UniProt P08183); assay: P-glycoprotein inhibitory activity: MTT cell growth assay in P-gp overexpressing MES-SA/DX5 cells with docetaxel or paclitaxel; assay type: cell-based; settings: 3 days, with 100 nM docetaxel or 200 nM paclitaxel, MTT readout
P-glycoprotein, sequence (P08183 whole entry): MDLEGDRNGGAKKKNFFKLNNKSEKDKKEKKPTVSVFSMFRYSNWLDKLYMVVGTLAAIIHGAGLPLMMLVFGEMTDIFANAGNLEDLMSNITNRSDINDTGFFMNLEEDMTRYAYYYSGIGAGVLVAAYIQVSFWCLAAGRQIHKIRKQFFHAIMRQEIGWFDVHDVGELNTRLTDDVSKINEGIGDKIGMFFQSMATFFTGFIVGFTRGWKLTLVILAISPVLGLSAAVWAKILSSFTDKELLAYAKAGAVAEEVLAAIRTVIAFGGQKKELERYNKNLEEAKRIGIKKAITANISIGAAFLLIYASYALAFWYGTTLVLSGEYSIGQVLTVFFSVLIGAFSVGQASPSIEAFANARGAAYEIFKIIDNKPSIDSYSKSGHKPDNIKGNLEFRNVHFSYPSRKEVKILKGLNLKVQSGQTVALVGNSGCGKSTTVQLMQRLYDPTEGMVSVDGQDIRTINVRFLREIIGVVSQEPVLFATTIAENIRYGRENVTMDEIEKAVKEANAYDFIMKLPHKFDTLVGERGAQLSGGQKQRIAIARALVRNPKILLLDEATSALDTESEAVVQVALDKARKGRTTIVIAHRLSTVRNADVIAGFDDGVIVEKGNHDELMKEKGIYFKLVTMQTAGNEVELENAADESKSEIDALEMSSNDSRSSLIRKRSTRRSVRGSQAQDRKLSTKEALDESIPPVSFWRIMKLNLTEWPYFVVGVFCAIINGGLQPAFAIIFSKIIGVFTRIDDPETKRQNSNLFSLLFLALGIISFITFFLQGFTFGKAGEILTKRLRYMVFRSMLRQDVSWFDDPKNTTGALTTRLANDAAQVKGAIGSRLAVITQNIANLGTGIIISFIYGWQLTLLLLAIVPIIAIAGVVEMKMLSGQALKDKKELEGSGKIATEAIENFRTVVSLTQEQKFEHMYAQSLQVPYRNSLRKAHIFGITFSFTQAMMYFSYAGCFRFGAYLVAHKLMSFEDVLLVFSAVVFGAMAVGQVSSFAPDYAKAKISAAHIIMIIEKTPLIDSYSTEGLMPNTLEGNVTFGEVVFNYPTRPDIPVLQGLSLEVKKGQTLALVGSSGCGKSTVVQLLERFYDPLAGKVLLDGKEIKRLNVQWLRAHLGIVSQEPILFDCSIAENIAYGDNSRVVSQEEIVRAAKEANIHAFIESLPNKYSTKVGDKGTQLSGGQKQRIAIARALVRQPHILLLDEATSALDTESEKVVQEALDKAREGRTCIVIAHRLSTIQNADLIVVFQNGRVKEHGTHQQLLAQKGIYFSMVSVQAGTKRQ
Description: P-glycoprotein inhibitory activity may be determined by an assay wherein P-glycoprotein overexpressed cell lines are treated with increasing concentrations of a compound of the present disclosure and therapeutic agent for three days, followed by an MTT assay.
Cell growth percentage may be calculated with the following equation: Cell growth percentage=(T−T0)/(C−T0)×100%, wherein T is OD of the test well exposure to Compound; C is OD of the control well without Compound treatment; and T0 is OD at time zero.
A P-glycoprotein overexpressing cell line derived from the human uterine sarcoma cell line MES-SA (i.e., MES-SA/DX5 cells (ATCC)) was seeded by stepwise exposures to increasing concentrations of doxorubicin, in a 96-well plate at 6,500 cells/100 μL media (McCoy's 5A+10% FBS) in each well. The cells were incubated overnight at 37° C. 5% CO2. Compounds were diluted in a separate 96-well plate to yield 11× of final concentration (final Compound concentrations were 0, 5, 20, 80, 320, and 1280 nM and the final docetaxel concentration was 100 nM or the final paclitaxel concentration was 200 nM). DMSO was used as a negative control and known P-glycoprotein inhibitor, encequidar methane sulfonic acid monohydrate (HM30181A), was used as a positive control. 10 μL of the 11× dilutions was added to the appropriate well, P-glycoprotein inhibition wells comprised Compound+docetaxel (or Compound+paclitaxel). The compound toxicity wells comprised 1280 nM Compound+10 μL of culture media. Treated the cells were incubated for 3 days at 37° C. 5% CO2.
To value (reflecting the starting number of cells upon Compound treatment) of 3 wells of cells was determined by performing the following steps 1-4 as described below.
1. 10 μL MTT (5 mg/mL in PBS) was added to each well and incubated for 1.5 hours at 37° C. 5% CO2.
2. Culture media was removed and 100 μL of DMSO was added to each well.
3. The plate was gently shook until all purple MTT formazan crystals were dissolved. OD540 was then measured using microplate reader.
4. Cell growth percentage was calculated with the following equation: Cell growth percentage=(T−T0)/(C−T0)×100%, wherein T is OD of the test well exposure to Compound; C is OD of the control well without Compound treatment; and T0 is OD at time zero.

CYP3A4, sequence (P08684 whole entry): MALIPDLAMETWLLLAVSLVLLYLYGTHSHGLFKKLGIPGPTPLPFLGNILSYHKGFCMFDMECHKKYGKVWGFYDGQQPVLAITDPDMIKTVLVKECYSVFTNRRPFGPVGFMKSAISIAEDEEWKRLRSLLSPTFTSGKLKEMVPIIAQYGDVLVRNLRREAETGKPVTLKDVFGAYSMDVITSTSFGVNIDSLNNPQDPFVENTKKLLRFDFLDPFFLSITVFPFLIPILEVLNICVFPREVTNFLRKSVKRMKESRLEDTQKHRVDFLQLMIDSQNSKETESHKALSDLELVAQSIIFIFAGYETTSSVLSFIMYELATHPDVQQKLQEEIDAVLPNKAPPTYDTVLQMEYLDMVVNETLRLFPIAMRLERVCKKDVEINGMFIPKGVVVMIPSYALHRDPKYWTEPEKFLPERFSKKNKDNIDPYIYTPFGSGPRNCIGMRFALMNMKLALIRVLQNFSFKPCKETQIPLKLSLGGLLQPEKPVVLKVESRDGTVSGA

Row | IC50 (CYP3A4) [nM] | EC50 (P-glycoprotein) [nM] | IC50 (CYP3A4; human, microsomes, 11 min) [nM] | SMILES
1 | 250 to 500 | > 1000 |  | COc1cc(NC(=O)c2cc(=O)c3ccccc3o2)c(-c2nnn(-c3ccc(CCN4CCc5ccc(-n6ccnc6)cc5C4)cc3)n2)cc1OC [Compound 10, N-(2-(2-(4-(2-(7-(1H-Imidazol-1-yl)-3,4-dihydroisoquinolin-2(1H)-yl)ethyl)phenyl)-2H-tetrazol-5-yl)-4,5-dimethoxyphenyl)-4-oxo-4H-chromene-2-carboxamide]
2 |  | > 1000 | > 1000 | COc1cc(NC(=O)c2cc(=O)c3ccc(C)cc3o2)c(-c2nnn(-c3ccc(CCN(Cc4cccc(-n5ccnc5)c4)Cc4ccc5c(cnn5C)c4)cc3)n2)cc1OC [Compound 5, N-(2-(2-(4-(2-((3-(1H-Imidazol-1-yl)benzyl)((1-methyl-1H-indazol-5-yl)methyl)amino)ethyl)phenyl)-2H-tetrazol-5-yl)-4,5-dimethoxyphenyl)-7-methyl-4-oxo-4H-chromene-2-carboxamide]
3 | > 1000 | < 100 |  | COC(=O)c1ccc(-c2nnn(-c3ccc(CCN(C)Cc4ccc5c(cnn5C)c4)cc3)n2)c(NC(=O)c2cc(=O)c3ccccc3o2)c1 [Compound 15, Methyl 4-(2-(4-(2-(methyl((1-methyl-1H-indazol-5-yl)methyl)amino)ethyl)phenyl)-2H-tetrazol-5-yl)-3-(4-oxo-4H-chromene-2-carboxamido)benzoate]
4 | 500 to 1000 | 500 to 1000 |  | COc1cc(NC(=O)c2cnc3ccccc3c2)c(-c2nnn(-c3ccc(CCN(Cc4cccc(-n5ccnc5)c4)Cc4ccc5c(cnn5C)c4)cc3)n2)cc1OC [Compound 4, N-(2-(2-(4-(2-((3-(1H-Imidazol-1-yl)benzyl)((1-methyl-1H-indazol-5-yl)methyl)amino)ethyl)phenyl)-2H-tetrazol-5-yl)-4,5-dimethoxyphenyl)quinoline-3-carboxamide]
5 |  | > 1000 | > 1000 | COc1cc2c(cc1OC)CN(CCc1ccc(-n3nnc(-c4cc(OC)c(OC)cc4NC(=O)c4cc(=O)c5cc(-n6ccnc6)ccc5o4)n3)cc1)CC2 [Compound 20, N-(2-(2-(4-(2-(6,7-Dimethoxy-3,4-dihydroisoquinolin-2(1H)-yl)ethyl)phenyl)-2H-tetrazol-5-yl)-4,5-dimethoxyphenyl)-6-(1H-imidazol-1-yl)-4-oxo-4H-chromene-2-carboxamide]

Further lines, the molecule ahead of its results:

Row | SMILES | IC50 (CYP3A4) [nM] | EC50 (P-glycoprotein) [nM] | IC50 (CYP3A4; human, microsomes, 11 min) [nM]
6 | COc1cc2c(cc1OC)CN(CCc1ccc(-n3nnc(-c4cc(OCc5cccnc5)ccc4NC(=O)c4cc(=O)c5ccccc5o4)n3)cc1)CC2 [Compound 27, N-(2-(2-(4-(2-(6,7-Dimethoxy-3,4-dihydroisoquinolin-2(1H)-yl)ethyl)phenyl)-2H-tetrazol-5-yl)-4-(pyridin-3-ylmethoxy)phenyl)-4-oxo-4H-chromene-2-carboxamide] |  | < 100 | > 1000
7 | COc1cc2c(cc1OC)CN(CCc1ccc(-n3nnc(-c4cc(OCc5ccncc5)ccc4NC(=O)c4cc(=O)c5ccccc5o4)n3)cc1)CC2 [Compound 26, N-(2-(2-(4-(2-(6,7-Dimethoxy-3,4-dihydroisoquinolin-2(1H)-yl)ethyl)phenyl)-2H-tetrazol-5-yl)-4-(pyridin-4-ylmethoxy)phenyl)-4-oxo-4H-chromene-2-carboxamide] |  | < 100 | > 1000
8 | COc1cc(NC(=O)c2cnc3ccccc3c2)c(-c2nnn(-c3ccc(CCN4CCc5cnccc5C4)cc3)n2)cc1OC [Compound 2, N-(2-(2-(4-(2-(3,4-Dihydro-2,6-naphthyridin-2(1H)-yl)ethyl)phenyl)-2H-tetrazol-5-yl)-4,5-dimethoxyphenyl)quinoline-3-carboxamide] | 100 to 250 | 100 to 250 | 
9 | COc1cc2c(cc1OC)CN(CCc1ccc(-n3nnc(-c4cc(OCc5ccccc5)c(OC)cc4NC(=O)c4cc(=O)c5ccccc5o4)n3)cc1)CC2 [Compound 29, N-(4-(Benzyloxy)-2-(2-(4-(2-(6,7-dimethoxy-3,4-dihydroisoquinolin-2(1H)-yl)ethyl)phenyl)-2H-tetrazol-5-yl)-5-methoxyphenyl)-4-oxo-4H-chromene-2-carboxamide] |  | < 100 | > 1000
10 | COc1cc2c(cc1OC)CN(CCc1ccc(-n3nnc(-c4cc(Oc5ccncc5)ccc4NC(=O)c4cc(=O)c5ccccc5o4)n3)cc1)CC2 [Compound 25, N-(2-(2-(4-(2-(6,7-Dimethoxy-3,4-dihydroisoquinolin-2(1H)-yl)ethyl)phenyl)-2H-tetrazol-5-yl)-4-(pyridin-4-yloxy)phenyl)-4-oxo-4H-chromene-2-carboxamide] |  | 500 to 1000 | > 1000
11 | COc1cc2c(cc1OC)CN(CCc1ccc(-n3nnc(-c4cc(OC)c(OC)cc4NC(=O)c4ccc(-n5ccnc5)cc4)n3)cc1)CC2 [Compound 23, N-(2-(2-(4-(2-(6,7-Dimethoxy-3,4-dihydroisoquinolin-2(1H)-yl)ethyl)phenyl)-2H-tetrazol-5-yl)-4,5-dimethoxyphenyl)-4-(1H-imidazol-1-yl)benzamide] | 500 to 1000 | 250 to 500 | 
12 | COc1cc2c(cc1OC)CN(CCc1ccc(-n3nnc(-c4cc(Oc5cccnc5)ccc4NC(=O)c4cc(=O)c5ccccc5o4)n3)cc1)CC2 [Compound 24, N-(2-(2-(4-(2-(6,7-Dimethoxy-3,4-dihydroisoquinolin-2(1H)-yl)ethyl)phenyl)-2H-tetrazol-5-yl)-4-(pyridin-3-yloxy)phenyl)-4-oxo-4H-chromene-2-carboxamide] |  | < 100 | > 1000
